The term IC50 denotes the concentration that inhibits the measured activity by half.

Here are results for 32 compounds from patent publication US11998539B2, “Substituted aminoquinolones as DGKalpha inhibitors for immune activation” (Bayer Aktiengesellschaft, priority 2019, dated 2024).

Sequence of DGKα (P23743 other isoform, or with tags, fused parts or gaps): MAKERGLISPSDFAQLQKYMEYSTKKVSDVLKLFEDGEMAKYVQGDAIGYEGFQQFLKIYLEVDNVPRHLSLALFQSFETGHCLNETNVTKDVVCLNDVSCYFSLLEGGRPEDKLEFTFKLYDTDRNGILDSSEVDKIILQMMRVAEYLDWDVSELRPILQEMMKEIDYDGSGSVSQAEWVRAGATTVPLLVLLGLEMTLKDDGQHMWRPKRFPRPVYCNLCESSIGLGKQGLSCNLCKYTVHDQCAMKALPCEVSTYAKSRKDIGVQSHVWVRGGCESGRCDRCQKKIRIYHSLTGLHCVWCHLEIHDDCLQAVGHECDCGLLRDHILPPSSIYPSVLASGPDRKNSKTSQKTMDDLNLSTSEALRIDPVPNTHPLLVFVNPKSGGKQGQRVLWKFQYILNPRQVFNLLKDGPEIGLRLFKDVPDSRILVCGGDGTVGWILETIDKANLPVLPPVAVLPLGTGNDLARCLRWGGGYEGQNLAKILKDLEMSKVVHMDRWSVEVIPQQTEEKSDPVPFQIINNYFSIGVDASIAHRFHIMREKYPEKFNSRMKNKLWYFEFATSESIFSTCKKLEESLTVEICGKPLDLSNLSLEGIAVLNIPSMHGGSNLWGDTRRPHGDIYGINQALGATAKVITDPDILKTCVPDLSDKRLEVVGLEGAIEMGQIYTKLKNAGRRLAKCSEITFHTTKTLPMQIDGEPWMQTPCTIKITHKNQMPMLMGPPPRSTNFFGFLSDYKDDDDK

The target of the assay is DGKα (Homo sapiens (Human), UniProt P23743). Kind of assay: Human DGKα kinase activity inhibition assay (ADP-Glo). It counts as biochemical. The conditions noted are these: recombinant full-length human DGKα, 55 μM ATP, 7 μM 1,2-dioleoyl-sn-glycerol, read-out: IC50 values of examples in in vitro human DGKa kinase activity inhibition assays. In outline:
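Recombinant full-length human DGKα (C-terminal FLAG, from insect cells) phosphorylated 1,2-dioleoyl-sn-glycerol presented in octyl-glucopyranoside micelles. ADP formed was quantified by ADP-Glo luminescence. Compounds were added from 100-fold DMSO stocks.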
Consider `Cc1ccc2oc(C3CCN(c4c(C#N)c(=O)n(C)c5cc(C)ccc45)CC3)nc2c1` [Example 221, 1,7-dimethyl-4-[4-(5-methyl-1,3-benzoxazol-2-yl)piperidin-1-yl]-2-oxo-1,2-dihydroquinoline-3-carbonitrile], for which the IC50 worked out at 1.8 nM.
For `Cn1c(=O)c(C#N)c(N2CCC(C)(c3nnc(-c4cccc(Cl)c4)o3)CC2)c2ccccc21` [Example 355, 4-{4-[5-(3-chlorophenyl)-1,3,4-oxadiazol-2-yl]-4-methylpiperidin-1-yl}-1-methyl-2-oxo-1,2-dihydroquinoline-3-carbonitrile] the value was 140 nM; for `COCCc1ccc2oc(C3CCN(c4c(C#N)c(=O)n(C)c5ccccc45)CC3)nc2c1` [Example 283, 4-{4-[5-(2-methoxyethyl)-1,3-benzoxazol-2-yl]piperidin-1-yl}-1-methyl-2-oxo-1,2-dihydroquinoline-3-carbonitrile], 6.8 nM; for “4-[4-(1,3-benzoxazol-5-yl)piperidin-1-y-1-methyl-2-oxo-1,2-dihydroquinoline-3-carbonitrile [Example 67]”, 85 nM.
As for `COc1cc2c(cc1Br)c(N1CCC(F)(c3nc4cc(C)ccc4o3)CC1)c(C#N)c(=O)n2C` [Example 420, 6-bromo-4-[4-fluoro-4-(5-methyl-1,3-benzoxazol-2-yl)piperidin-1-yl]-7-methoxy-1-methyl-2-oxo-1,2-dihydroquinoline-3-carbonitrile], the figure is 0.6 nM; as for `Cc1ccc2oc(C3CCN(c4c(C#N)c(=O)n(C)c5ccc(P(C)(C)=O)cc45)CC3)nc2c1` [Example 338, 6-(dimethylphosphoryl)-1-methyl-4-[4-(5-methyl-1,3-benzoxazol-2-yl)piperidin-1-yl]-2-oxo-1,2-dihydroquinoline-3-carbonitrile], 86 nM; as for `COC1(c2cccc(Cl)c2)CCN(c2c(C(N)=O)c(=O)n(C)c3ccccc23)CC1` [Example 451, 4-[4-(3-chlorophenyl)-4-methoxypiperidin-1-yl]-1-methyl-2-oxo-1,2-dihydroquinoline-3-carboxamide], 163 nM.
For the compound `COc1ccc(C2CCN(c3c(C#N)c(=O)n(C)c4cc(-c5ccccc5)ccc34)CC2)cc1` [Example 92, 4-[4-(4-methoxyphenyl)piperidin-1-yl]-1-methyl-2-oxo-7-phenyl-1,2-dihydroquinoline-3-carbonitrile], the IC50 amounted to 9.8 nM.
As for `Cn1c(=O)c(C#N)c(N2CCC(c3nc4ccccc4s3)CC2)c2cccc(F)c21` [Example 154, 4-[4-(1,3-benzothiazol-2-yl)piperidin-1-yl]-8-fluoro-1-methyl-2-oxo-1,2-dihydroquinoline-3-carbonitrile], the figure is 34 nM; as for `Cn1c(=O)c(C#N)c(N2CCC(c3nc4cc(Cl)ccc4o3)CC2)c2ccccc21` [Example 11, 4-[4-(5-chloro-1,3-benzoxazol-2-yl)piperidin-1-yl]-1-methyl-2-oxo-1,2-dihydroquinoline-3-carbonitrile], 3.8 nM.
As for `Cn1c(=O)c(C#N)c(N2CCC(C)(c3nc4ccccc4o3)CC2)c2cccc(Cl)c21` [Example 230, 4-[4-(1,3-benzoxazol-2-yl)-4-methylpiperidin-1-yl]-8-chloro-1-methyl-2-oxo-1,2-dihydroquinoline-3-carbonitrile], the figure is 83 nM.
`Cn1c(=O)c(C#N)c(N2CCC(c3ccn(-c4cccc(Cl)c4)n3)CC2)c2ccccc21` [Example 368, 4-{4-[1-(3-chlorophenyl)-1H-pyrazol-3-yl]piperidin-1-yl}-1-methyl-2-oxo-1,2-dihydroquinoline-3-carbonitrile]: the IC50 was 13 nM.
As for `Cc1ccc2c(c1)c(N1CCC(c3nc4cc(Cl)ccc4o3)CC1)c(C(N)=O)c(=O)n2C` [Example 201, 4-[4-(5-chloro-1,3-benzoxazol-2-yl)piperidin-1-yl]-1,6-dimethyl-2-oxo-1,2-dihydroquinoline-3-carboxamide], the figure is 1.1 nM; as for `Cn1c(=O)c(C#N)c(N2CCC(c3nc4ccc(Cl)cc4o3)CC2)c2ccccc21` [Example 9, 4-[4-(6-chloro-1,3-benzoxazol-2-yl)piperidin-1-yl]-1-methyl-2-oxo-1,2-dihydroquinoline-3-carbonitrile], 3.3 nM; as for `Cn1c(=O)c(C#N)c(N2CCC(c3nc4ccccc4o3)CC2)c2ccccc21` [Example 2, 4-[4-(1,3-benzoxazol-2-yl)piperidin-1-yl]-1-methyl-2-oxo-1,2-dihydroquinoline-3-carbonitrile], 6.4 nM.
As for `COc1cccc2c(N3CCC(C)(c4nc5cc(C)ccc5o4)CC3)c(C#N)c(=O)n(C)c12` [Example 260, 8-methoxy-1-methyl-4-[4-methyl-4-(5-methyl-1,3-benzoxazol-2-yl)piperidin-1-yl]-2-oxo-1,2-dihydroquinoline-3-carbonitrile], the concentration for half-maximal inhibition (IC50) turned out to be 35 nM.
For `COc1ccc(C2CCN(c3c(C#N)c(=O)n(C)c4ccccc34)CC2)cc1` [Example 41, 4-[4-(4-methoxyphenyl)piperidin-1-yl]-1-methyl-2-oxo-1,2-dihydroquinoline-3-carbonitrile] the value was 4.9 nM.
For `Cc1ccc2oc(C3CCN(c4c(C(N)=O)c(=O)n(C)c5cc(C(F)(F)F)ccc45)CC3)nc2c1` [Example 307, 1-methyl-4-[4-(5-methyl-1,3-benzoxazol-2-yl)piperidin-1-yl]-2-oxo-7-(trifluoromethyl)-1,2-dihydroquinoline-3-carboxamide] the value was 5.7 nM; for `COc1ccc(C2CCN(c3c(C#N)c(=O)n(C)c4cc(Br)ccc34)CC2)cc1` [Example 89, 7-bromo-4-[4-(4-methoxyphenyl)piperidin-1-yl]-1-methyl-2-oxo-1,2-dihydroquinoline-3-carbonitrile], 2.1 nM.
Turning to `Cn1c(=O)c(C#N)c(N2CCC(c3nnc(-c4cccc(Cl)c4)o3)CC2)c2ccccc21` [Example 354, 4-{4-[5-(3-chlorophenyl)-1,3,4-oxadiazol-2-yl]piperidin-1-yl}-1-methyl-2-oxo-1,2-dihydroquinoline-3-carbonitrile], the IC50 amounted to 112 nM.
As for `Cn1c(=O)c(C#N)c(N2CCC(c3cccc(F)c3)CC2)c2ccccc21` [Example 62, 4-[4-(3-fluorophenyl)piperidin-1-yl]-1-methyl-2-oxo-1,2-dihydroquinoline-3-carbonitrile], the figure is 38 nM.
As for `Cc1ccc2oc(C3CCN(c4c(C#N)c(=O)n(C)c5cc(N(C)CCO)c(C)cc45)CC3)nc2c1` [Example 551, 7-[(2-hydroxyethyl)(methyl)amino]-1,6-dimethyl-4-[4-(5-methyl-1,3-benzoxazol-2-yl)piperidin-1-yl]-2-oxo-1,2-dihydroquinoline-3-carbonitrile], the figure is 0.1 nM.
As for `CCOc1ccc2c(c1)c(N1CCC(c3nc4cc(C)ccc4o3)CC1)c(C#N)c(=O)n2C` [Example 405, 6-ethoxy-1-methyl-4-[4-(5-methyl-1,3-benzoxazol-2-yl)piperidin-1-yl]-2-oxo-1,2-dihydroquinoline-3-carbonitrile], the figure is 41 nM; as for `Cc1cccc(-c2nnc(C3CCN(c4c(C#N)c(=O)n(C)c5ccc(Br)cc45)CC3)o2)c1` [Example 443, 6-bromo-1-methyl-4-{4-[5-(3-methylphenyl)-1,3,4-oxadiazol-2-yl]piperidin-1-yl}-2-oxo-1,2-dihydroquinoline-3-carbonitrile], 9.1 nM.
As to `COc1ccc(C2CCN(c3c(C#N)c(=O)n(C)c4ccccc34)CC2)cc1OC` [Example 324, 4-[4-(3,4-dimethoxyphenyl)piperidin-1-yl]-1-methyl-2-oxo-1,2-dihydroquinoline-3-carbonitrile], the IC50 stood at 14 nM.
As for `CCC1(c2nc3ccccc3o2)CCN(c2c(C#N)c(=O)n(C)c3cc(Br)ccc23)CC1` [Example 223, 4-[4-(1,3-benzoxazol-2-yl)-4-ethylpiperidin-1-yl]-7-bromo-1-methyl-2-oxo-1,2-dihydroquinoline-3-carbonitrile], the figure is 1.2 nM.
As for `COc1ccc2c(c1)c(N1CCC(c3nnc(-c4ccccc4)o3)CC1)c(C#N)c(=O)n2C` [Example 439, 6-methoxy-1-methyl-2-oxo-4-[4-(5-phenyl-1,3,4-oxadiazol-2-yl)piperidin-1-yl]-1,2-dihydroquinoline-3-carbonitrile], the figure is 492 nM.
For `Cn1c(=O)c(C#N)c(N2CCC(c3nc4ccccc4o3)CC2)c2cc(Br)ccc21` [Example 168, 4-[4-(1,3-benzoxazol-2-yl)piperidin-1-yl]-6-bromo-1-methyl-2-oxo-1,2-dihydroquinoline-3-carbonitrile] the value was 0.5 nM; for `Cc1ccc(-c2csc(C3CCN(c4c(C#N)c(=O)n(C)c5ccccc45)CC3)n2)cc1` [Example 374, 1-methyl-4-{4-[4-(4-methylphenyl)-1,3-thiazol-2-yl]piperidin-1-yl}-2-oxo-1,2-dihydroquinoline-3-carbonitrile], 34 nM.
For the compound `CCCOc1ccc2c(N3CCC(C)(c4nc5cc(C)ccc5o4)CC3)c(C#N)c(=O)n(C)c2c1` [Example 257, 1-methyl-4-[4-methyl-4-(5-methyl-1,3-benzoxazol-2-yl)piperidin-1-yl]-2-oxo-7-propoxy-1,2-dihydroquinoline-3-carbonitrile], the IC50 amounted to 26 nM.
For `CCC1(c2nc3ccccc3o2)CCN(c2c(C#N)c(=O)n(C)c3ccccc23)CC1` [Example 106, 4-[4-(1,3-benzoxazol-2-yl)-4-ethylpiperidin-1-yl]-1-methyl-2-oxo-1,2-dihydroquinoline-3-carbonitrile] the value was 0.9 nM; for `COC1(c2nc3ccccc3o2)CCN(c2c(C(N)=O)c(=O)n(C)c3ccccc23)CC1` [Example 489, 4-[4-(1,3-benzoxazol-2-yl)-4-methoxypiperidin-1-yl]-1-methyl-2-oxo-1,2-dihydroquinoline-3-carboxamide], 7.5 nM.
